Key:
primary HIV-1 isolates = settings: isolates P-31, P-41-0, P41-28 and P-51; IsnoR5 clone 2 cells; 1 μg/ml AMD 3100
Protocol: Virus-containing supernatants, normalized to 5 ng/ml HIV-1 Gag p24, were titrated in the IsnoR5 clones in the absence and presence of 1 μg/ml AMD 3100. After 14 days, cell free supernatants tested for viral Gag protein by p24 antigen capture assay. The number of positive wells was used to determine the TCID50 of the original sample.
Virus isolation was performed as previously described (Holtkamp et al., 2000) except that viral replication was detected using an antigen capture enzyme-linked immunosorbent assay (ELISA) for the HIV-1 Gag p24 core protein. Inactivated supernatants (0.2% Tween 20) were titrated on ELISA plates coated with the Gag-specific monoclonal antibody Ag3.0 (hybridoma kindly provided by Jon Allan, Southwest Foundation, San Antonio, Tex., USA). […] Captured protein was detected using pooled sera from HIV-1 positive individuals followed by a goat antihuman immunoglobulin G-peroxidase conjugate (Sigma-Aldrich, Taufkirchen, Germany). Virus levels were calculated by comparison with a standard HIV-1 supernatant of known p24 Gag concentration.
Virus-containing supernatants were serially diluted in media and aliquoted (50 μl per well, six replicates per dilution) into U-well microtiter plates containing 2×10^5 of IsnoR5 clones 1 or 2 or 4.5×10^5 PBMC from healthy blood donors in 150 μl medium. […]

[1] = system: CXCR4-tropic virus strains; settings: cited from earlier work
[2] = system: dualtropic viruses that use CCR5 and CXCR4; settings: human PBMC; cited from earlier work

SMILES: c1cc(CN2CCCNCCNCCCNCC2)ccc1CN1CCCNCCNCCCNCC1 [AMD 3100]
- Replication of isolates in the presence of AMD 3100 (FIG. 5) (primary HIV-1 isolates): all were inhibited from replication
- Infection of cells by CXCR4-tropic virus strains [1]: preventing infection
- Block of dualtropic viruses [2]: efficiently block
